We go through three molecules from paper PMC11571012, “Synthesis and Preclinical Evaluation of a Bispecific PSMA-617/RM2 Heterodimer Targeting Prostate Cancer” (ACS Medicinal Chemistry Letters, 2024).

Series [1] has as its target T1, PSMA receptor in LNCaP cells (PSMA+, GRPR-) (Homo sapiens, UniProt Q04609).
T1 construct: Briefly, LNCaP 10 5 cells per well; host or cells: LNCaP cells
In words: Cell-based competitive binding assay in LNCaP cells against [68Ga]Ga-PSMA-10. The settings on record: 10^5 cells/well, against [68Ga]Ga-PSMA-10 0.75 nM, analyte 0–5000 nM, 45 min, gamma counter, quadruplicate.
Procedure: Each value was measured in quadruplicate.
Cell Culture & cell assays
In vitro and in vivo experiments were performed with the following cell lines: the GRPR positive PC -3 cells
supplemented with 10% fetal calf serum and 2 mM L -glutamine (Invitrogen, Carlsbad, CA, USA). Cells
were grown at 37 °C in humidified air with 5% CO 2. Trypsin-ethylenediaminetetraacetic acid (trypsin -
EDTA; 0.25% tryps in, 0.02% EDTA, Invitrogen) was used for cell harvesting.
Determination of Binding Affinity in LNCaP and PC -3 cells
3-5 Briefly, LNCaP 10 5 cells per well
PSMA-10, precursor purchased from ABX, Radeberg , Germany) and an ascending series of 12 different
45 min). This mixture was removed after incubation and the wells were washed on a multiscreen vacuum
manifold (Millipore, Billerica, MA) three times with PBS. The following detection of cell-bound
radioactivity was measured using a gamma counter (Packard Cobra II, GMI, Minnesota, USA).
fitted with a nonlinear regression algorithm (GraphPad Software) to determine the 50% inhibitory
concentration (IC50) values.
min. After incubation the mixture was removed, the wells were washed with PBS and the cell -bound
radioactivity was measured using a gamma counter (Hidex AMG - Automated Gamma Counter).

The next series concerns the target PSMA (LNCaP, PC-3 PIP). The conditions noted are these: read-out: Ki, LNCaP (literature), LNCaP cells, literature data, ref 2 (SI); cited from earlier work.
Series [2] in a line: Radio RP-HPLC analysis (elution order). The settings on record: radiolabeled ligands; Chromolith RP-18e, 0−100% AcCN (0.1% TFA) in 6 min, 4 mL/min; said to agree with logD.
The test system of another series is PC-3 tumors. The conditions noted are these: in vivo; cited from earlier work.
The target in series [3] is T1, PSMA receptor in LNCaP cells (PSMA+, GRPR-). The conditions noted are these: standard used at C = 0.75 nM; no reference given; read-out: IC50 of standard radioligand (PSMA); cited from earlier work.

Where two headings read alike, the source gives them in different places.

T1 sequence (Q04609 whole entry): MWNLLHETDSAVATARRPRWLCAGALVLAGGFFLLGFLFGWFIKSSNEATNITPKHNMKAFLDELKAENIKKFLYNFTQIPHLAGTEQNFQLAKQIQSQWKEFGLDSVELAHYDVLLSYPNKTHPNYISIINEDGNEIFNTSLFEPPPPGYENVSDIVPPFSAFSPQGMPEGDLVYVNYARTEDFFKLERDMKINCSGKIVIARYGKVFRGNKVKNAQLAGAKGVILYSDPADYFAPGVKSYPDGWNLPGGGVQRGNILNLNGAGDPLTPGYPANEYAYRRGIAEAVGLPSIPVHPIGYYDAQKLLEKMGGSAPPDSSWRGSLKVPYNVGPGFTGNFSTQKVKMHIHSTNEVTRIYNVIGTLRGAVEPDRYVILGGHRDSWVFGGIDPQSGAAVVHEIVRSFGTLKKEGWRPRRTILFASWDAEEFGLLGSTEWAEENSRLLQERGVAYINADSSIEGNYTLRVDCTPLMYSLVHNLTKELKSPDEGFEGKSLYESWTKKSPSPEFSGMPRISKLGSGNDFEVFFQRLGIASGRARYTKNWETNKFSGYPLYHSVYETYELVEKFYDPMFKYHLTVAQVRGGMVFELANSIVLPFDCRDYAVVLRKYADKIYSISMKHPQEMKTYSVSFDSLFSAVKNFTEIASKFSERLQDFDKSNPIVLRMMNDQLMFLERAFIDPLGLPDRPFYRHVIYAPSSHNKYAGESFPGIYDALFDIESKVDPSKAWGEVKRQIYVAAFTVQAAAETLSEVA
Procedure for PSMA (LNCaP, PC-3 PIP): This mixture was removed after incubation and the wells were washed on a multiscreen vacuum manifold (Millipore, Billerica, MA) three times with PBS. The following detection of cell-bound radioactivity was measured using a gamma counter (Packard Cobra II, GMI, Minnesota, USA).

For the molecule `O=C(O)CC[C@H](NC(=O)N[C@@H](CCCCNC(=O)[C@H](Cc1ccc2ccccc2c1)NC(=O)[C@H]1CC[C@H](CNC(=O)CN2CCN(CC(=O)O)CCN(CC(=O)O)CCN(CC(=O)O)CC2)CC1)C(=O)O)C(=O)O` [PSMA-617 (1), vipivotide tetraxetan], the IC50 (usually the concentration that gives 50% inhibition) in series [1] was 6.41 nM. On PSMA (LNCaP, PC-3 PIP), the Ki (usually the equilibrium dissociation constant of an inhibitor or competing ligand from its target) is 2.34 nM. The “Elution order in radio RP-HPLC” value in series [2] is given as “eluted first”. Consider `CC(C)C[C@H](NC(=O)C[C@H](O)[C@H](CC(C)C)NC(=O)[C@H](Cc1c[nH]cn1)NC(=O)CNC(=O)[C@@H](NC(=O)[C@H](C)NC(=O)[C@H](Cc1c[nH]c2ccccc12)NC(=O)[C@H](CCC(N)=O)NC(=O)[C@@H](Cc1ccccc1)NC(=O)CN1CCC(NC(=O)CN2CCN(CC(=O)O)CCN(CC(=O)O)CCN(CC(=O)O)CC2)CC1)C(C)C)C(N)=O` [[68Ga]Ga-RM2] [metal not drawn], for which the Kidneys uptake in the series on PC-3 tumors is 3.34 ± 0.54 % ID/g. As to “[Glu-urea-Lys(Ahx)]2-HBED-CC [[^68Ga]Ga-PSMA-10]”, in series [3], the IC50 was 3.8 ± 1.8 nM.
